Where two headings read alike, the source gives them in different places.
How the values were obtained:
[1] = biological target: T1, CIB1 and αIIb interaction (CIB1-GST : F-αIIb peptide) (Homo sapiens, UniProt Q99828); assay: FP assay, 1536-well qHTS format (primary and confirmatory screen); assay type: binding; conditions: for CONFIRMATORY SCREEN Curve Class / Curve Class (confirmatory screen): qHTS curve class
T1 construct: made in house; host or cells: BL-21 plus RIL cells (E. coli)
T1 sequence (Q99828 1-191): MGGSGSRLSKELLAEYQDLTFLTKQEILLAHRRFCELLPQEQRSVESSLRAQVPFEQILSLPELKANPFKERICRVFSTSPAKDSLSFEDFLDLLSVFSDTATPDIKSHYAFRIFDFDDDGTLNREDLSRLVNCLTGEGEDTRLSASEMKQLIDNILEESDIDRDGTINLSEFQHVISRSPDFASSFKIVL

[2] = biological target: T2, GST-CIB1 : F-scrambled peptide (Homo sapiens, UniProt Q99828); assay: FP scrambled-peptide counter screen, 1536-well format; assay type: binding; conditions: for COUNTERSCREEN Curve Class / Curve Class (counterscreen): qHTS curve class; for IC50: read-out: IC50 [μM] (counterscreen)
T2 construct: made in house; host or cells: BL-21 plus RIL cells (E. coli)
T2 sequence (Q99828 1-191): T1 sequence (Q99828 1-191)

[3] = qHTS FP screen hits, Table S2, negative = inhibition
[4] = qHTS FP screen hits, Table S2, one class per curve where COUNT > 1, negative sign = inhibitory curve
[5] = qHTS FP screen hits, Table S2, read-out: IC50
[6] = Table S3, confirmatory screen, YES/NO call
[7] = Table S3, confirmatory screen, a negative sign marks inhibitory curves
[8] = Table S3, confirmatory screen, negative = inhibition
[9] = Table S3, confirmatory screen, read-out: IC50 [μM] (confirmatory screen)
[10] = qHTS primary screen hits, Table S2, negative = inhibition
[11] = qHTS primary screen hits, Table S2, negative sign = inhibitory curve, several classes where COUNT > 1
[12] = qHTS primary screen hits, Table S2, read-out: IC50
[13] = Table S3, counterscreen, a negative sign marks inhibitory curves
[14] = Table S3, counterscreen, negative = inhibition
[15] = Table S3, counterscreen, YES/NO call
[16] = confirmatory screen, negative sign = inhibitory curve
[17] = confirmatory screen, read-out: IC50 [μM] (confirmatory screen)
[18] = counterscreen, negative sign = inhibitory curve

O=C(O)Cc1ccc(CCNS(=O)(=O)c2ccc(Cl)cc2)cc1 [NCGC00165787-03]
CONFIRMATORY SCREEN Efficacy (%) ([1]; confirmatory screen): 14% | CONFIRMATORY SCREEN Curve Class ([1]; confirmatory screen): 4 | Efficacy (%) [1, 3]: -61% | Curve Class [1, 4]: -2.2 | IC50 [1, 5]: 79.4 µM | COUNTERSCREEN Efficacy (%) ([2]; counterscreen): 0% | COUNTERSCREEN Curve Class ([2]; counterscreen): 4

CCCCNC(=S)N/N=C1\C(=O)Nc2ccccc21.O=C(O)C(F)(F)F [NCGC00229539-01]
Confirm? (confirmatory screen) [1, 6]: YES | Curve Class (confirmatory screen) [1, 7]: -2.4 | Efficacy (%) (confirmatory screen) [1, 8]: -49% | IC50 [1, 9]: 50.1 µM | Efficacy (%) [1, 10]: -32% | Curve Class [1, 11]: -1.2 | IC50 [1, 12]: 17.8 µM | Curve Class (counterscreen) [2, 13]: -1.2 | Efficacy (%) (counterscreen) [2, 14]: -50% | IC50 ([2]; Table S3, counterscreen): 11.2 µM

O=C(NCCCN1CCNCC1)c1cccc(-c2cc(O)c3ncccc3c2)c1.O=C(O)C(F)(F)F [NCGC00244531-01]
Curve Class (confirmatory screen) [1, 7]: 4 | Efficacy (%) (confirmatory screen) [1, 8]: -33% | Efficacy (%) [1, 3]: -46% | Curve Class [1, 4]: -2.2 | IC50 [1, 5]: 39.8 µM | Confirm? (counterscreen) [2, 15]: YES | Curve Class (counterscreen) [2, 13]: -1.2 | Efficacy (%) (counterscreen) [2, 14]: -52% | IC50 ([2]; Table S3, counterscreen): 35.5 µM

CN1CCc2cccc3c2[C@H]1Cc1ccc(O)c(O)c1-3 [NCGC00025349-05]
Curve Class (confirmatory screen) [1, 7]: 4 | Efficacy (%) (confirmatory screen) [1, 8]: -17% | Efficacy (%) [1, 10]: -58% | Curve Class [1, 11]: -2.4 | IC50 [1, 12]: 12.6 µM | Curve Class (counterscreen) [2, 13]: 4 | Efficacy (%) (counterscreen) [2, 14]: -34%

O=C(Nc1ccc(S(=O)(=O)N2CCOCC2)cc1)c1cc(Cl)ccc1NS(=O)(=O)c1ccc(Cl)s1.O=C(O)C(F)(F)F [NCGC00249417-01]
Curve Class (confirmatory screen) [1, 7]: 4 | Efficacy (%) (confirmatory screen) [1, 8]: -31% | Efficacy (%) (counterscreen) [2, 14]: 163% | IC50 ([2]; Table S3, counterscreen): 79.4 µM

NC(=O)c1ncn([C@@H]2O[C@H](CO)[C@@H](O)[C@H]2O)c1O [NCGC00094087-05]
CONFIRMATORY SCREEN Efficacy (%) ([1]; confirmatory screen): -5.43% | CONFIRMATORY SCREEN Curve Class ([1]; confirmatory screen): 4 | Efficacy (%) [1, 10]: -52% | Curve Class [1, 11]: -1.2 | IC50 [1, 12]: 20 µM | COUNTERSCREEN Efficacy (%) ([2]; counterscreen): 0% | COUNTERSCREEN Curve Class ([2]; counterscreen): 4

O=C(O)C(F)(F)F.O=C(O)c1ccc(Cc2c(-c3cccc(-c4ccccc4)c3)nn(-c3nc(C(=O)O)cs3)c2O)cc1 [NCGC00356639-01]
Confirm? (confirmatory screen) [1, 6]: YES | Curve Class (confirmatory screen) [1, 7]: -2.2 | Efficacy (%) (confirmatory screen) [1, 8]: -79% | IC50 [1, 9]: 50.1 µM | Efficacy (%) [1, 10]: -39% | Curve Class [1, 11]: -2.2 | IC50 [1, 12]: 39.8 µM | Curve Class (counterscreen) [2, 13]: -2.1 | Efficacy (%) (counterscreen) [2, 14]: -99% | IC50 ([2]; Table S3, counterscreen): 39.8 µM

O=C(O)C(F)(F)F.O=C1CCCC2=C1C1(CCOCC1)N=C(Nc1nc3ccccc3o1)N2 [NCGC00188584-01]
CONFIRMATORY SCREEN Efficacy (%) ([1]; confirmatory screen): 0% | CONFIRMATORY SCREEN Curve Class ([1]; confirmatory screen): 4 | Efficacy (%) [1, 3]: -26% | IC50 [1, 5]: 15.8 µM | COUNTERSCREEN Efficacy (%) ([2]; counterscreen): -16% | COUNTERSCREEN Curve Class ([2]; counterscreen): 4

Fc1ccc(NC(=S)Nc2nnc(-c3ccncc3)s2)cc1C(F)(F)F.O=C(O)C(F)(F)F [NCGC00241743-01]
CONFIRMATORY SCREEN Efficacy (%) ([1]; confirmatory screen): -35% | CONFIRMATORY SCREEN Curve Class ([1]; confirmatory screen): 4 | Efficacy (%) [1, 3]: -41% | Curve Class [1, 4]: -2.2 | IC50 [1, 5]: 22.4 µM | COUNTERSCREEN Efficacy (%) ([2]; counterscreen): 39% | COUNTERSCREEN Curve Class ([2]; counterscreen): 4

O=C(O)C(F)(F)F.O=S(=O)(Nc1nccs1)c1ccc(Nc2nc(-c3ccccc3)cs2)cc1 [NCGC00262380-01]
Confirm? (confirmatory screen) [1, 6]: YES | Curve Class (confirmatory screen) [1, 7]: -2.2 | Efficacy (%) (confirmatory screen) [1, 8]: -80% | Efficacy (%) [1, 10]: -69% | Curve Class [1, 11]: -2.2 | IC50 [1, 12]: 50.1 µM | Curve Class (counterscreen) [2, 13]: -2.1 | Efficacy (%) (counterscreen) [2, 14]: -81% | IC50 ([2]; Table S3, counterscreen): 50.1 µM

CN(C(=O)c1cccs1)c1cccnc1.O=C(O)C(F)(F)F [NCGC00241518-01]
Confirm? (confirmatory screen) [1, 6]: YES | Curve Class (confirmatory screen) [1, 7]: -1.1 | Efficacy (%) (confirmatory screen) [1, 8]: -90% | IC50 [1, 9]: 31.6 µM | Efficacy (%) [1, 3]: -77% | Curve Class [1, 4]: -2.2 | IC50 [1, 5]: 50.1 µM | Curve Class (counterscreen) [2, 13]: -2.1 | Efficacy (%) (counterscreen) [2, 14]: -118% | IC50 ([2]; Table S3, counterscreen): 44.7 µM

CN(C)CC1CCCN(C2CCN(C(=O)c3cccc(-c4cc(O)c5ncccc5c4)c3)CC2)C1.O=C(O)C(F)(F)F (centres unmarked) [NCGC00247737-01]
Curve Class (confirmatory screen) [1, 7]: 4 | Efficacy (%) (confirmatory screen) [1, 8]: -41% | Efficacy (%) [1, 3]: -45% | Curve Class [1, 4]: -1.2 | IC50 [1, 5]: 22.4 µM | Confirm? (counterscreen) [2, 15]: YES | Curve Class (counterscreen) [2, 13]: -2.2 | Efficacy (%) (counterscreen) [2, 14]: -46% | IC50 ([2]; Table S3, counterscreen): 39.8 µM

Cc1ccc(S(=O)(=O)Nc2cnccc2C(=O)Nc2ccc(-c3nnn[nH]3)cc2)cc1.O=C(O)C(F)(F)F [NCGC00343837-01]
Efficacy (%) (confirmatory screen) ([1]; confirmatory screen): -63% | Confirm? (confirmatory screen) ([1]; confirmatory screen, YES/NO): YES | Curve Class (confirmatory screen) [1, 16]: -2.4 | IC50 [1, 17]: 35.5 µM | Efficacy (%) [1, 10]: -24% | Curve Class ([1]; qHTS primary screen hits, Table S2, negative sign = inhibitory curve): -2.4 | IC50 [1, 12]: 31.6 µM | Efficacy (%) (counterscreen) ([2]; counterscreen): -40% | Confirm? (counterscreen) ([2]; counterscreen, YES/NO): YES | Curve Class (counterscreen) [2, 18]: 4

CC1(C)C=CN2C(=O)C3=CCCN3C(=O)[C@@H]2C[C@@]12Nc1ccccc1C2=O [NCGC00380729-01]
Efficacy (%) (confirmatory screen) ([1]; confirmatory screen): -68% | Confirm? (confirmatory screen) ([1]; confirmatory screen, YES/NO): YES | Curve Class (confirmatory screen) [1, 16]: -2.2 | Efficacy (%) [1, 3]: -42% | Curve Class [1, 4]: -2.2 | IC50 [1, 5]: 44.7 µM | Efficacy (%) (counterscreen) ([2]; counterscreen): -55% | Curve Class (counterscreen) [2, 18]: -2.2 | IC50 ([2]; counterscreen): 39.8 µM

CS(=O)(=O)c1ccc(C(=O)OCC(=O)N2CCN(CCC3CCCCC3)CC2)cc1[N+](=O)[O-].O=C(O)C(F)(F)F [NCGC00188531-01]
Confirm? (confirmatory screen) [1, 6]: YES | Curve Class (confirmatory screen) [1, 7]: -3 | Efficacy (%) (confirmatory screen) [1, 8]: -49% | IC50 [1, 9]: 39.8 µM | Efficacy (%) [1, 10]: -26% | Curve Class [1, 11]: -1.4 | IC50 [1, 12]: 0.9 µM | Curve Class (counterscreen) [2, 13]: -2.2 | Efficacy (%) (counterscreen) [2, 14]: -50% | IC50 ([2]; Table S3, counterscreen): 39.8 µM

O=C(O)C(F)(F)F.O=S(=O)(Nc1ccc(N2CCNCC2)cc1)c1ccc(NCc2ccc(Br)cc2O)cc1 [NCGC00343874-01]
Confirm? (confirmatory screen) [1, 6]: YES | Curve Class (confirmatory screen) [1, 7]: -2.4 | Efficacy (%) (confirmatory screen) [1, 8]: -41% | Efficacy (%) [1, 10]: -76% | Curve Class [1, 11]: -2.2 | IC50 [1, 12]: 79.4 µM | Curve Class (counterscreen) [2, 13]: -2.2 | Efficacy (%) (counterscreen) [2, 14]: -58% | IC50 ([2]; Table S3, counterscreen): 44.7 µM

CC[C@@H](CO)NC(=O)[C@@H]1C=C2c3cccc4c3c(cn4C)C[C@H]2N(C)C1.O=C(O)/C=C\C(=O)O [NCGC00024027-06]
Efficacy (%) (confirmatory screen) ([1]; confirmatory screen): -88% | Confirm? (confirmatory screen) ([1]; confirmatory screen, YES/NO): YES | Curve Class (confirmatory screen) [1, 16]: -2.2 | IC50 [1, 17]: 44.7 µM | Efficacy (%) (counterscreen) ([2]; counterscreen): -73% | Curve Class (counterscreen) [2, 18]: -3 | IC50 ([2]; counterscreen): 89.1 µM

From paper PMC11249646, “Small-Molecule Disruptors of the Interaction between Calcium- and Integrin-Binding Protein 1 and Integrin αIIbβ3 as Novel Antiplatelet Agents” (ACS Pharmacology & Translational Science, 2024)
